target: recombinant mTOR (FLAG-tagged, residues 1362-2549) (Homo sapiens, UniProt P42345); assay: In vitro mTOR kinase assay (Test (a), AlphaScreen); format: biochemical; settings: ATP 20 μM, read-out: Test (a): IC50 versus mTOR kinase
In short: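 AlphaScreen read-out: a phospho-T389 p70 S6K antibody on acceptor beads captures the phosphorylated biotin-peptide on donor beads, with signal loss indicating inhibition.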

Sequence of recombinant mTOR (FLAG-tagged, residues 1362-2549) (P42345 1362-2549): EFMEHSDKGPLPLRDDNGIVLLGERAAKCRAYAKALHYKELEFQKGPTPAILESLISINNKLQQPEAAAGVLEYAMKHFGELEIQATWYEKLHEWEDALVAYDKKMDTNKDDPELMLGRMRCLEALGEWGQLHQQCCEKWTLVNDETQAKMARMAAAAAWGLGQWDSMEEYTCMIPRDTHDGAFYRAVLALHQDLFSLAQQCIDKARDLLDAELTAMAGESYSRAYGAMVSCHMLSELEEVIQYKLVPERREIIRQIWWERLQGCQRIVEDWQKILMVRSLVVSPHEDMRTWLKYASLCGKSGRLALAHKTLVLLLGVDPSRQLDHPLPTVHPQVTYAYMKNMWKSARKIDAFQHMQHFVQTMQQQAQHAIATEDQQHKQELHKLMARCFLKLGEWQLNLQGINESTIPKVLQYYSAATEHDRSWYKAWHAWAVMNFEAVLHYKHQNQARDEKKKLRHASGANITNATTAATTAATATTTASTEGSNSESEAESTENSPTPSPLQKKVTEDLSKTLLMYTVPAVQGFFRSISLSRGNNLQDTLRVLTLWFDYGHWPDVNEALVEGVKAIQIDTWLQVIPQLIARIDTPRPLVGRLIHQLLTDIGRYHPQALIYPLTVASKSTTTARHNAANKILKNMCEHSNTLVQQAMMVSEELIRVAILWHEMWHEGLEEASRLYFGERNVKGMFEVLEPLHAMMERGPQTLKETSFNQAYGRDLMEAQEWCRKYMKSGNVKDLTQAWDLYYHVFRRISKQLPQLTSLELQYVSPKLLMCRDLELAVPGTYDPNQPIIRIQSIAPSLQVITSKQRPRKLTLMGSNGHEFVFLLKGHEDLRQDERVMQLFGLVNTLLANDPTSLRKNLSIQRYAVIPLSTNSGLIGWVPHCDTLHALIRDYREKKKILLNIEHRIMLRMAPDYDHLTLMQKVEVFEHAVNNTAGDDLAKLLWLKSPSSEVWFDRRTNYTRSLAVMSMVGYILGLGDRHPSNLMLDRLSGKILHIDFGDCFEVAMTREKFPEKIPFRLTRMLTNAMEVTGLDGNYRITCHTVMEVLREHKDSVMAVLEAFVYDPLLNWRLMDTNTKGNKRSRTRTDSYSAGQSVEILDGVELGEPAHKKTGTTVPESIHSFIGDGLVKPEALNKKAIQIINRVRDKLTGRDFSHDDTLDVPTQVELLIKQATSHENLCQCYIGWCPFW

Compound	IC50 [nM]
C[C@H]1COCCN1c1cc(CN2CCS(=O)(=O)CC2)nc(-c2ccc(NC(=O)NC3CC3)cc2)n1 [Example 50, 3-Cyclopropyl-1-[4-[4-[(1,1-dioxo-1,4-thiazinan-4-yl)methyl]-6-[(3S)-3-methylmorpholin-4-yl]pyrimidin-2-yl]phenyl]urea]	1.6
C[C@H]1COCCN1c1cc(CN2CCN(C)CC2)nc(-c2ccc(NC(=O)NCc3cnn(C)c3)cc2)n1 [Example 52, 1-[4-[4-[(3S)-3-Methylmorpholin-4-yl]-6-[(4-methylpiperazin-1-yl)methyl]pyrimidin-2-yl]phenyl]-3-[(1-methylpyrazol-4-yl)methyl]urea]	1400
C[C@H]1COCCN1c1cc(CNC2CC2)nc(-c2ccc(NC(=O)NCc3cnn(C)c3)cc2)n1 [Example 52a, 1-[4-[4-[(cyclopropylamino)methyl]-6-[(3S)-3-methylmorpholin-4-yl]pyrimidin-2-yl]phenyl]-3-[(1-methylpyrazol-4-yl)methyl]urea]	330
C[C@H]1COCCN1c1cc(CN(C)C2CC2)nc(-c2ccc(NC(=O)NCc3cnn(C)c3)cc2)n1 [Example 52b, 1-[4-[4-[(cyclopropyl-methyl-amino)methyl]-6-[(3S)-3-methylmorpholin-4-yl]pyrimidin-2-yl]phenyl]-3-[(1-methylpyrazol-4-yl)methyl]urea]	570
CC(=O)NCCS(=O)(=O)Cc1cc(N2CCOC[C@@H]2C)nc(-c2ccc(NC(=O)NCc3cnn(C)c3)cc2)n1 [Example 53, N-[2-[[6-[(3S)-3-methylmorpholin-4-yl]-2-[4-[(1-methylpyrazol-4-yl)methylcarbamoylamino]phenyl]pyrimidin-4-yl]methylsulfonyl]ethyl]acetamide]	640
C[C@H]1COCCN1c1cc(CS(=O)(=O)CC(N)=O)nc(-c2ccc(NC(=O)NCc3cnn(C)c3)cc2)n1 [Example 53a]	600
C[C@H]1COCCN1c1cc(CS(=O)(=O)c2ccncc2)nc(-c2ccc(NC(=O)NCc3cnn(C)c3)cc2)n1 [Example 53c, 1-[4-[4-[(3S)-3-methylmorpholin-4-yl]-6-(pyridin-4-ylsulfonylmethyl)pyrimidin-2-yl]phenyl]-3-[(1-methylpyrazol-4-yl)methyl]urea]	30
C[C@H]1COCCN1c1cc(CS(=O)(=O)C2CC2)nc(-c2ccc(NC(=O)NC3CC3)cc2)n1 [Example 55, 3-Cyclopropyl-1-[4-[4-(cyclopropylsulfonylmethyl)-6-[(3S)-3-methylmorpholin-4-yl]pyrimidin-2-yl]phenyl]urea]	62
C[C@H]1COCCN1c1cc(C(C)(C)S(=O)(=O)C2CC2)nc(-c2ccc(NC(=O)NC3CC3)cc2)n1 [Example 56, 3-Cyclopropyl-1-[4-[4-(2-cyclopropylsulfonylpropan-2-yl)-6-[(3S)-3-methylmorpholin-4-yl]pyrimidin-2-yl]phenyl]urea]	2400
CCNC(=O)Nc1ccc(-c2nc(CS(=O)(=O)c3ccccn3)cc(N3CCOC[C@@H]3C)n2)cc1 [Example 71, 3-Ethyl-1-[4-[4-[(3S)-3-methylmorpholin-4-yl]-6-(pyridin-2-ylsulfonylmethyl)pyrimidin-2-yl]phenyl]urea]	32

tested on: phosphorylation of Serine 473 in Akt in MDA-MB-468 human breast adenocarcinoma cells; assay: In vitro phospho-Ser473 Akt assay (Test (c)); format: cell-based; settings: Homo sapiens, MDA-MB-468, 2 h, MDA-MB-468 cells, 2 hours incubation; read-out: Test (c): IC50 versus Serine 473 in Akt
Experimental: (c) In Vitro Phospho-Ser473 Akt Assay
This assay determines the ability of test compounds to inhibit phosphorylation of Serine 473 in Akt as assessed using Acumen Explorer technology (Acumen Bioscience Limited), a plate reader that can be used to rapidly quantitate features of images generated by laser-scanning.
A MDA-MB-468 human breast adenocarcinoma cell line (LGC Promochem, Teddington, Middlesex, UK, Catalogue No. HTB-132) was routinely maintained at 37° C. with 5% CO2 up to a confluency of 70-90% in DMEM containing 10% heat-inactivated FCS and 1% L-glutamine.
For the assay, the cells were detached from the culture flask using ‘Accutase’ (Innovative Cell Technologies Inc., San Diego, Calif., USA; Catalogue No. AT104) using standard tissue culture methods and resuspended in media to give 1.7×10^5 cells per mL. Aliquots (90 μl) were seeded into each of the inner 60 wells of a black Packard 96 well plate (PerkinElmer, Boston, Mass., USA; Catalogue No. 6005182) to give a density of 15000 cells per well. Aliquots (90 μl) of culture media were placed in the outer wells to prevent edge effects. The cells were incubated overnight at 37° C. with 5% CO2 to allow them to adhere.
On day 2, the cells were treated with test compounds and incubated for 2 hours at 37° C. with 5% CO2. Test compounds were prepared as 10 mM stock solutions in DMSO and serially diluted as required with growth media to give a range of concentrations that were 10-fold the required final test concentrations. Aliquots (10 μl) of each compound dilution were placed in a well (in triplicate) to give the final required concentrations. As a minimum response control, each plate contained wells having a final concentration of 100 μM LY294002 (Calbiochem, Beeston, UK, Catalogue No. 440202). As a maximum response control, wells contained 1% DMSO instead of test compound. Following incubation, the contents of the plates were fixed by treatment with a 1.6% aqueous formaldehyde solution (Sigma, Poole, Dorset, UK, Catalogue No. F1635) at room temperature for 1 hour.
All subsequent aspiration and wash steps were carried out using a Tecan 96 well plate washer (aspiration speed 10 mm/sec). The fixing solution was removed and the contents of the plates were washed with phosphate-buffered saline (PBS; 50 μl; Gibco, Catalogue No. 10010015). The contents of the plates were treated for 10 minutes at room temperature with an aliquot (50 μl) of a cell permeabilisation buffer consisting of a mixture of PBS and 0.5% Tween-20. The ‘permeabilisation’ buffer was removed and non-specific binding sites were blocked by treatment for 1 hour at room temperature of an aliquot (50 μl) of a blocking buffer consisting of 5% dried skimmed milk [‘Marvel’ (registered trade mark); Premier Beverages, Stafford, GB] in a mixture of PBS and 0.05% Tween-20. The ‘blocking’ buffer was removed and the cells were incubated for 1 hour at room temperature with rabbit anti phospho-Akt (Ser473) antibody solution (50 μl per well; Cell Signalling, Hitchin, Herts, U.K., Catalogue No 9277) that had been diluted 1:500 in ‘blocking’ buffer. Cells were washed three times in a mixture of PBS and 0.05% Tween-20. Subsequently, cells were incubated for 1 hour at room temperature with Alexafluor488 labelled goat anti-rabbit IgG (50 μl per well; Molecular Probes, Invitrogen Limited, Paisley, UK, Catalogue No. A11008) that had been diluted 1:500 in ‘blocking’ buffer. Cells were washed 3 times with a mixture of PBS and 0.05% Tween-20. An aliquot of PBS (50 μl) was added to each well and the plates were sealed with black plate sealers and the fluorescence signal was detected and analysed.
Fluorescence dose response data obtained with each compound were analysed and the degree of inhibition of Serine 473 in Akt was expressed as an IC50 value.

Compound	IC50 [nM]
C[C@H]1COCCN1c1cc(CS(C)(=O)=O)nc(-c2ccc(NC(=O)Nc3cccc(=O)[nH]3)cc2)n1 [Example 22c, 1-[4-[4-[(3S)-3-methylmorpholin-4-yl]-6-(methylsulfonylmethyl)pyrimidin-2-yl]phenyl]-3-(6-oxo-1H-pyridin-2-yl)urea]	210
CCNC(=O)Nc1ncc(-c2nc(N3CCOC[C@@H]3C)cc(C(C)(C)S(C)(=O)=O)n2)cn1 [Example 24af, 1-ethyl-3-[5-[4-[(3S)-3-methylmorpholin-4-yl]-6-(2-methylsulfonylpropan-2-yl)pyrimidin-2-yl]pyrimidin-2-yl]urea]	1400
C[C@H]1COCCN1c1cc(C(C)(C)S(C)(=O)=O)nc(-c2cnc(NC(=O)NC3CC3)nc2)n1 [Example 24ag, 3-cyclopropyl-1-[5-[4-[(3S)-3-methylmorpholin-4-yl]-6-(2-methylsulfonylpropan-2-yl)pyrimidin-2-yl]pyrimidin-2-yl]urea]	320
CNC(=O)Nc1ccc(-c2nc(N3CCOC[C@@H]3C)cc(C(C)(C)S(C)(=O)=O)n2)cn1 [Example 24ah, 3-methyl-1-[5-[4-[(3S)-3-methylmorpholin-4-yl]-6-(2-methylsulfonylpropan-2-yl)pyrimidin-2-yl]pyridin-2-yl]urea]	510
CCNC(=O)Nc1ccc(-c2nc(N3CCOC[C@@H]3C)cc(C(C)(C)S(C)(=O)=O)n2)cn1 [Example 24ai, 1-ethyl-3-[5-[4-[(3S)-3-methylmorpholin-4-yl]-6-(2-methylsulfonylpropan-2-yl)pyrimidin-2-yl]pyridin-2-yl]urea]	260
C[C@H]1COCCN1c1cc(C(C)(C)S(C)(=O)=O)nc(-c2ccc(NC(=O)NC3CC3)nc2)n1 [Example 24aj, 3-cyclopropyl-1-[5-[4-[(3S)-3-methylmorpholin-4-yl]-6-(2-methylsulfonylpropan-2-yl)pyrimidin-2-yl]pyridin-2-yl]urea]	450
CCCNC(=O)Nc1ccc(-c2nc(N3CCOC[C@@H]3C)cc(C(C)(C)S(C)(=O)=O)n2)cc1 [Example 24ak, 3-[4-[4-[(3S)-3-methylmorpholin-4-yl]-6-(2-methylsulfonylpropan-2-yl)pyrimidin-2-yl]phenyl]-1-propyl-urea]	210
CC(C)NC(=O)Nc1ccc(-c2nc(N3CCOC[C@@H]3C)cc(C(C)(C)S(C)(=O)=O)n2)cc1 [Example 24al, 1-[4-[4-[(3S)-3-methylmorpholin-4-yl]-6-(2-methylsulfonylpropan-2-yl)pyrimidin-2-yl]phenyl]-3-propan-2-yl-urea]	38
C[C@H]1COCCN1c1cc(C(C)(C)S(C)(=O)=O)nc(-c2ccc(NC(=O)NC3CCC3)cc2)n1 [Example 24am, 3-cyclobutyl-1-[4-[4-[(3S)-3-methylmorpholin-4-yl]-6-(2-methylsulfonylpropan-2-yl)pyrimidin-2-yl]phenyl]urea]	210
C[C@H]1COCCN1c1cc(C(C)(C)S(C)(=O)=O)nc(-c2ccc(NC(=O)NC(C)(C)CO)cc2)n1 [Example 24an, 3-(1-hydroxy-2-methyl-propan-2-yl)-1-[4-[4-[(3S)-3-methylmorpholin-4-yl]-6-(2-methylsulfonylpropan-2-yl)pyrimidin-2-yl]phenyl]urea]	1800
C[C@H]1COCCN1c1cc(C(C)(C)S(C)(=O)=O)nc(-c2ccc(NC(=O)NCc3cccnc3)cc2)n1 [Example 24ao, 1-[4-[4-[(3S)-3-methylmorpholin-4-yl]-6-(2-methylsulfonylpropan-2-yl)pyrimidin-2-yl]phenyl]-3-(pyridin-3-ylmethyl)urea]	240
C[C@H](CO)NC(=O)Nc1ccc(-c2nc(N3CCOC[C@@H]3C)cc(C(C)(C)S(C)(=O)=O)n2)cc1 [Example 24ap, 3-[(2R)-1-hydroxypropan-2-yl]-1-[4-[4-[(3S)-3-methylmorpholin-4-yl]-6-(2-methylsulfonylpropan-2-yl)pyrimidin-2-yl]phenyl]urea]	77

same assay, conditions: MDA-MB-468 cells, 2 hours incubation; read-out: Test (c): IC50 versus Serine 473 in Akt

Compound	IC50 [nM]
1-[4-[4-[(3S)-3-methylmorpholin- 4-yl]-6-(2-propan-2- yl]phenyl]-3-pyridin-2-yl-urea [Example 60u]	160
